The text below walks through data of US5118681A (priority 1989, dated 1992).

Test [1] concerns Pseudomonas fluorescens. Description: Speed of Kill Test, alternate, 24 h, synthetic hard water (Table 4). Format: cell-based. The conditions noted are these: Ps.fl in synthetic hard water, 100 ppm.
Another test relates to A.n. Description: Minimum Inhibitory Concentration Test, alternate (Table 4), A.n. The note with it: TSB, 72 hours. Format: cell-based, Aspergillus niger. The procedure, abridged: (§1)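 Compound in acetone was diluted into TSB and serially diluted 1:1 from 250 ppm down to 0.8 ppm, in duplicate. Plates were inoculated with diluted 24 h culture and incubated 3 days at 30° C; MIC recorded as lowest concentration with no growth.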

In a further test the test system is Candida albicans (C.alb). Description: Minimum Inhibitory Concentration Test, alternate (Table 4), C.alb. Format: cell-based. The conditions noted are these: TSB, 72 hours. In a few lines: as §1
The next test deals with E.c. The test is described as follows: Minimum Inhibitory Concentration Test, alternate (Table 4), E.c. Format: cell-based, Escherichia coli. The conditions noted are these: TSB, 72 hours. In a few lines:
as §1

The next test has as its system Ps.ae. The test is described as follows: Minimum Inhibitory Concentration Test, alternate (Table 4), Ps.ae. Format: cell-based, Pseudomonas aerugenosa. The conditions noted are these: TSB, 72 hours.
Test [2] deals with Pseudomonas fluorescens. Description: Minimum Inhibitory Concentration Test, alternate (Table 4), Ps.fl. The conditions noted are these: TSB, 72 hours, 30° C. Format: cell-based. The procedure, abridged: as §1
Another test deals with S.a. Description: Minimum Inhibitory Concentration Test, alternate (Table 4), S.a. Format: cell-based, Staphylococcus aureus. The note with it: TSB, 72 hours. The procedure, abridged:
as §1

The test system of test [3] is Pseudoperonospora cubensis. Description: whole plant or invertebrate. Format: in vivo. The conditions noted are these: in vivo.
For another test, the system named is Piricularia oryzae. Description: whole plant or invertebrate. Format: in vivo. The conditions noted are these: in vivo.
The test system of test [4] is Pellicularia filamentosa (f. sp. sasiki). Description: whole plant or invertebrate. Format: in vivo. The note with it: in vivo.
A further test deals with Phytophthora infestans. The test is described as follows: whole plant or invertebrate. The note with it: 200 ppm application rate. Format: in vivo.
Test [5] concerns Erysiphe graminis (f. sp. tritici). The test is described as follows: whole plant or invertebrate. Format: in vivo. The conditions noted are these: in vivo.

“N-n-octyl-cis-3-{2-[ethyl-N-(2-thiophenylmethyl)malonamido]thio}acrylamide [Example 28]” registered an SOK with Pseudomonas fluorescens [1] of over 100 ppm. The “MIC A.n” value in the test with A.n is given as 16-31 ppm. Besides, in the test on Candida albicans (C.alb), the “MIC C.alb” value worked out at 63 ppm. Further, the “MIC E.c” value in the test with E.c stood at 500 ppm. Also, the “MIC Ps.ae” value against Ps.ae came to 500 ppm. For the same substance, the “MIC Ps.fl” value with Pseudomonas fluorescens [2] came to 500 ppm. Besides, the “MIC S.a” value in the test on S.a came to 500 ppm. Further, in [3], the “% control CDM” value was found to be 96%. Moreover, the “% control RB” value with Piricularia oryzae came out at 25%. Also, the “% control RSB” value in test [4] came to 0%. In addition, the “% control TLB” value in the test on Phytophthora infestans was 50%. Further, in [5], the “% control WPM” value is listed as 0%.
